Results: patent US20140349962A1, “RAPID TWO-STEP SYNTHESIS OF ANTI-COAGULANTS” (Massachusetts Institute of Technology, priority 2013, published 2014)

Assays:
[1] = biological target: anti-thrombin III (ATIII) (Homo sapiens, UniProt P01008); settings: compared to in vitro modified commercial heparin
Description: PAP^35S-radiolabeled N-deacetylate N-sulfate derivatives of non-sulfated N-acetyl heparosan (HS) polysaccharides (10, 000 counts) was reacted with […] ATIII. Complex formation was analyzed by non-denaturing gel electrophoresis (4% polyacrylamide). The mobility of radiolabeled N-deacetylate N-sulfate derivatives of non-sulfated N-acetyl heparosan (HS) polysaccharides was compared with and without ATIII.
Heparin-ATIII binding buffer contained 12% glycerol, 20 mM Tris-HCl (pH 7.9), 100 mM KCl, 1 mM EDTA, and 1 mM DTT. For a typical 20 μl binding reaction, radiolabeled polysaccharide (10,000 cpm) was mixed with AT-III (1 μg) in the binding buffer. The reaction mixture was incubated at room temperature (23° C.) for 20 min and was then applied to a 4.5% native polyacrylamide gel (with 0.1% of bis-acrylamide). The gel buffer was 10 mM Tris (pH 7.4) and 1 mM EDTA, and the electrophoresis buffer was 40 mM Tris (pH 8.0), 40 mM acetic acid, 1 mM EDTA. The gel was run at 6 volts/cm for 1-2 hours with an SE 250 Mighty Small II gel apparatus (Hoefer Scientific Instruments, San Francisco). After electrophoresis, the gel was transferred to 3 MM paper and dried under vacuum. The dried gel was autoradiographed by a PhosphorImager 445S1 (Molecular Dynamics, Sunnyvale, Calif.). The image was analyzed with NIH Image 1.60 and band intensities were evaluated.

Human factor Xa = settings: approximately; heparin-dependent factor Xa inhibition, commercial heparin as standard
Description: Human factor Xa (10.4 mg/ml 50% glycerol, 820 units/mg) (Hematologic Technologies, Essex Junction, Vt.) was used for assay. Factor Xa was diluted 1:200 with PBS containing 1 mg of bovine serum albumin (4 units/ml and 15 units/ml, respectively). ATIII (2.5 mg/ml) (GlycoMed, CA) was diluted 1:200 to give a 2×10^7 M stock solution. The chromogenic substrate S-2765 was from Chromogenix (West Chester, Ohio) and the stock solution of 1 mM with 1 mg/ml Polybrene in water was prepared. Heparin (174 international units/mg, Sigma) was used as a standard. The N-deacetylated N-sulfated polysaccharide product was used for factor Xa studies (10 ng). The protocol involved adding 25 μl of ATIII (2×10 7 M) to 25 μl of a serial dilution of heparin standards or N-deacetylated N-sulfated polysaccharide in Tris-EDTA (50 mM Tris, 7.5 mM EDTA, and 175 mM NaCl (pH 8.4)) buffer. The reaction was incubated at 37° C. for 75 seconds. Factor Xa (25 μl, 4 units/ml) was added. After incubating at 37° C. for 195 seconds, 25 μl of S-2765 was added. The absorbance at 405 nm was read every minute for 10 minutes using a Beckman UV spectrometer.

PF4 = PF4 (Homo sapiens, UniProt P02776); settings: expected because compound is free of 2-O sulfated iduronic acid residues
PF4, sequence (P02776 32-101): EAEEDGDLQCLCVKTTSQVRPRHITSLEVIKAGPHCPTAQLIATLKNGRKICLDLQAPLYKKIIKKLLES

anti-thrombin III (ATIII), sequence (P01008 33-464, species assumed): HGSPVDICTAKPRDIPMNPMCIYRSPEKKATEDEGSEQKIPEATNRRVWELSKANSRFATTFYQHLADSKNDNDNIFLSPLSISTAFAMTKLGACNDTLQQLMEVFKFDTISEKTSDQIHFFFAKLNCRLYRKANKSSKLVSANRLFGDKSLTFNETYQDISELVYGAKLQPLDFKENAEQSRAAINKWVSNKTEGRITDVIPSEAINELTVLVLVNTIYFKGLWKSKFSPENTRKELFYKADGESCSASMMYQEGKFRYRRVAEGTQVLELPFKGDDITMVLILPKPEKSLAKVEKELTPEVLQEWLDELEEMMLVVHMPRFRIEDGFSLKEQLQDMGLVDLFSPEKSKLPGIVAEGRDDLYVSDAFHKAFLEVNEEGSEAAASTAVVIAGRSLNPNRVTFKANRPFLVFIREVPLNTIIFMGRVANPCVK

Substance: N-deacetylate N-sulfate derivatives of non-sulfated N-acetyl heparosan (HS) polysaccharide [Formula I]
- percentage of compound bound to ATIII compared to commercial heparin [1]: greater percentage
- specific activity relative to commercial heparin (Human factor Xa): 4-5 times
- ability to bind to PF4 (PF4): reduced ability to bind to PF4
